According to US9763969B2, “Treatment of inflammatory conditions with hyaluronan disaccharide” (CEDARS-SINAI MEDICAL CENTER, priority 2013, dated 2017):

Key:
macrophage = macrophage stimulation assay, Pam3csk4 induced TNF-α secretion; format: cell-based; settings: FIG. 3C; for Pam3csk4 induced TNF-α secretion: TLR2 agonist Pam3csk4
Source text: (§1) FIG. 3 depicts, in accordance with an embodiment of the invention, in vitro anti-inflammatory properties of GBS hyaluronidase. A. Bio-Gel P-4 chromatography of hyaluronidase digestion mixture following digestion with GBS, bovine testis, or Streptomyces hyaluronlyticus hyaluronidase. B. Digestion of HA by GBS hyaluronidase leads to suppressed inflammation. C. HA disaccharide inhibits Pam3csk4 induced TNFα secretion.
(§2) Since bovine hyaluronidase degrades HA to 4-16mers, the inventors asked whether subsequent degradation with GBS hyaluronidase would abrogate induction of TNF-α. Indeed that is what the inventors found (FIG. 3B right). Because the major product of GBS hyaluronidase enzymatic activity is diHA (disaccharide), the inventors also evaluated the direct effect of DiHA on TNF-α secretion induced by a TLR2 agonist Pam3csk4.

[1] = test system: bone marrow derived macrophages; assay: macrophage stimulation assay, LPS or undigested hyaluronan with hyaluronan disaccharide; format: cell-based, mice
Description: FIG. 6 depicts, in accordance with an embodiment of the invention, hyaluronan disaccharide has an anti-inflammatory property. Hyaluronan disaccharide was co-incubated with LPS or undigested hyaluronan in a macrophage stimulation assay. Hyaluronan disaccharide reduces TNF-α induction by LPS or undigested hyaluronan.
FIG. 11 depicts, in accordance with an embodiment of the invention, hyaluronan dimers are not inert. Bone marrow derived macrophages from WT mice were incubated with LPS and various concentrations of hyaluronan disaccharide. TNF-α at 18 h was measured.

TLR2 = TLR2 reporter construct in HEK cells; format: cell-based; settings: TLR2 agonist Pam3, FIG. 12A
Description: (§3) FIG. 12 depicts, in accordance with an embodiment of the invention, HA disaccharide reduces TLR 2 and 4 (A), but not TLR9 (B) signaling. HEK cells were transfected with TLR2, 4, and 9 reporter constructs. The cells were incubated with TLR2 agonist (Pam3), TL4 agonist (LPS), or TLR9 agonist (Cpg) with or without hyaluronan disaccharide. Activation of the reporter genes at 4 h was measured.

TLR4 = TLR4 reporter construct in HEK cells; format: cell-based; settings: TLR4 agonist LPS, FIG. 12A
Description: as §3

TLR9 = TLR9 reporter construct in HEK cells; format: cell-based; settings: TLR9 agonist Cpg, FIG. 12B
Description: as §3

acute lung injury = assay: LPS acute lung injury, intratracheal; format: in vivo; settings: mice, 5 micrograms LPS intratracheally, 100 micrograms disaccharide, 24 h; FIG. 14
Description: FIG. 14 depicts, in accordance with an embodiment of the invention, HA disaccharide decreases acute lung injury. Mice were injected intratracheally with 5 micrograms of LPS, along with PBS, Hyaluronan disaccharide (100 micrograms) or GBS enzyme (1 mg). At 24 h, the mice were sacrificed and the lungs were analyzed for histology (F&G) and cytokines and chemokines (A-E).

[2] = test system: bone marrow derived macrophages; assay: hyaluronan predigested with GBS hyaluronidase, then stimulation of macrophages; format: cell-based
Source text: FIG. 7 depicts, in accordance with an embodiment of the invention, Group B streptococcal hyaluronidase has an anti-inflammatory property. Hyaluronan was predigested with purified GBS hyaluronidase or PBS, and then transferred to a culture of bone marrow derived macrophages.
(§4) FIG. 8 depicts, in accordance with an embodiment of the invention, GBS hyaluronidase reduces hyaluronan to dimers and dampens inflammation. HPLC profile of hyaluronan fragments generated by bovine hyaluronidase versus Group B streptococcus (GBS) hyaluronidase (A). Stimulatory hyaluronan fragments (4-16mers) were digested with GBS hyaluronidase for 4 or 15 hours (B).
as §2

[3] = hyaluronidase digestion of HA, fragment sizes (Bio-Gel P-4 chromatography / HPLC); format: biochemical; settings: FIG. 3A
Source text: as §1, §4, §2

Molecule	immunostimulatory capacity (macrophage)	Pam3csk4 induced TNF-α secretion (macrophage; listed as HA disaccharide)	Pam3csk4 induced TNF-α secretion (macrophage; listed as diHA)	TNF-α at 18 h with LPS and various concentrations of hyaluronan disaccharide ([1]; bone marrow derived macrophages from WT mice, FIG. 11)	TNF-α induction by LPS ([1]; co-incubated with LPS, FIG. 6)	TNF-α induction by undigested hyaluronan ([1]; co-incubated with undigested hyaluronan, FIG. 6)	TLR2 signaling (reporter gene activation at 4 h) (TLR2)	TLR4 signaling (reporter gene activation at 4 h) (TLR4)	TLR9 signaling (reporter gene activation at 4 h) (TLR9)	acute lung injury (acute lung injury)	TNF-α stimulation by hyaluronan ([2]; hyaluronan predigested with purified GBS hyaluronidase or PBS, FIG. 7)	cytokine production ([2]; stimulatory hyaluronan fragments (4-16mers) digested for 4 or 15 hours, FIG. 8B)	induction of TNF-α by HA degraded with bovine hyaluronidase ([2]; subsequent degradation with GBS hyaluronidase, FIG. 3B right)	HA degradation product (fragment size) [3]
hyaluronan disaccharide	no immunostimulatory capacity	inhibits	partially inhibited	not inert	reduces	reduces	reduces	reduces	not	decreases				
GBS hyaluronidase: purified hyaluronidase from Group B Streptococcus (S. agalactiae) that degrades HA to a disaccharide (protein, UniProt Q53591 41-984, looked up) Hyaluronate lyase: WIDKENTADKSPIIQRTEQGQVSLSSDKGFRGAVTQKVNIDPTKKYEVKFDIETSNKAGQAFLRIMEKKDNNTRLWLSEMTSGTTNKHTLTKIYNPKLNVSEVTLELYYEKGTGSATFDNISMKAKGPKDSEHPQPVTTQIEESVNTALNKNYVFNKADYQYTLTNPSLGKIVGGILYPNATGSTTVKISDKSGKIIKEVPLSVTASTEDKFTKLLDKWNDVTIGNHVYDTNDSNMQKINQKLDETNAKNIKTIKLDSNHTFLWKDLDNLNNSAQLTATYRRLEDLAKQITNPHSTIYKNEKAIRTVKESLAWLHQNFYNVNKDIEGSANWWDFEIGVPRSITATLALMNNYFTDAEIKTYTDPIEHFVPDAGYFRKTLDNPFKALGGNLVDMGRVKIIEGLLRKDNTIIEKTSHSLKNLFTTATKAEGFYADGSYIDHTNVAYTGAYGNVLIDGLTQLLPIIQETDYKISNQELDMVYKWINQSFLPLIVKGELMDMSRGRSISREAASSHAAAVEVLRGFLRLANMSNEERNLDLKSTIKTIITSNKFYNVFNNLKSYSDIANMNKMLNDSTVATKPLKSNLSTFNSMDRLAYYNAEKDFGFALSLHSKRTLNYEGMNDENTRDWYTGDGMFYLYNSDQSHYSNHFWPTVNPYKMAGTTEKDAKREDTTKEFMSKHSKDAKEKTGQVTGTSDFVGSVKLNDHFALAAMDFTNWDRTLTAQKGWVILNDKIVFLGSNIKNTNGIGNVSTTIDQRKDDSKTPYTTYVNGKTIDLKQASSQQFTDTKSVFLESKEPGRNIGYIFFKNSTIDIERKEQTGTWNSINRTSKNTSIVSNPFITISQKHDNKGDSYGYMMVPNIDRTSFDKLANSKEVELLENSSKQQVIYDKNSQTWAVIKHDNQESLINNQFKMNKAGLYLVQKVGNDYQNVYYQPQTMTKTDQLAI											significantly reduces	reduces cytokine production	abrogate	a single product—a disaccharide
